Common to all, as to assay type: biochemical
In assay [1] the target is β-Glucosidase (Almonds, EC 3.2.1.21). Nature of the assay: β-Glucosidase enzyme inhibition assay (p-nitrophenyl β-D-glucopyranoside). The conditions noted are these: for IC50: pH 5.0, 37° C., 45 minutes. As for the experimental part: (§1) By using a 96-well microplate, the absorbance (at 405 nm) of liberated p- or o-nitrophenol was measured with a microplate reader (MPR-4Ai, manufactured by Tosoh Corporation).
(§2) Incubation was carried out at 37° C. by using a natural incubator (Compact NIB-10, manufactured by Iwaki Glass Co., Ltd.).
(§3) The enzymes employed herein [α-glucosidase (Baker's yeast), β-glucosidase (Almonds), α-galactosidase (E. coli), β-galactosidase (E. coli) and β-galactosidase (Bovine Liver)] were all purchased from Sigma.
(§4) The substrates (p- or o-nitrophenylglycoside) of these enzymes were all purchased from Sigma.
2) β-Glucosidase (Almonds, EC 3.2.1.21) [described in A. Kobayashi, Agr. Biol. Chem., 26, 203-207 (1962)]
Into each well were introduced an aqueous solution of a sample (1 μl), a 0.33 mM solution of p-nitrophenyl β-D-glucopyranoside in a buffer (98 μl) and a (0.4 mg/ml) enzyme solution in the buffer (1 μl) to give a total volume of 100 μl. After incubating at 37° C. for 45 minutes, the reaction was ceased by adding a 1M aqueous solution of sodium carbonate (100 μl). Then the absorbance (A405) of p-nitrophenol liberated by this enzyme reaction was measured. To give the blank absorbance (Ablank), the sample (1 μl) and the substrate (99 μl) were incubated in the same manner and an aqueous solution of sodium carbonate (100 μl) was added followed by the measurement of the absorbance. […] As the buffer, a 0.1M acetate buffer solution (pH 5.0, prepared from NaOAc and AcOH) was employed. The IC50 was determined in the same manner as employed in the case of α-glucosidase.

Assay [2] deals with α-Galactosidase (E. Coli, EC. 3.2.1.22). Nature of the assay: α-Galactosidase enzyme inhibition assay (p-nitrophenyl α-D-galactopyranoside). The settings on record: pH 6.5, room temperature, 15 minutes. The procedure:
as §1, §3, §4
3) α-Galactosidase (E. Coli, EC. 3.2.1.22) [described in H. Suzuki, S-C. Li and Y-T. Li, J. Biol. Chem., 245, 781-786 (1970)]
Into each well were introduced an aqueous solution of a sample (1 μl), a buffer (74 μl), a 9.9 mM solution of p-nitrophenyl α-D-galactopyranoside in a buffer (20 μl) and a (50 μg/ml) enzyme solution in the buffer (5 μl) to give a total volume of 100 μl. After incubating the resulting mixture at room temperature (20°-30° C.) for 15 minutes, the reaction was ceased by adding a 0.2M borate buffer solution (pH 9.8, prepared from NaOH and H3 BO3, 100 μl). Then the absorbance (A405) of p-nitrophenol liberated by this enzyme reaction was measured. To give the blank absorbance (Ablank), the sample (1 μl), the substrate (20 μl) and the buffer solution (79 μl) were incubated in the same manner and the 0.2M borate buffer solution (100 μl) was added followed by the measurement of the absorbance. To give the control absorbance ([…]), on the other hand, water (1 μl), the substrate (20 μl), the buffer solution (74 μl) and the enzyme solution (5 μl) were incubated in the same manner and the borate buffer solution (100 μl) was added followed by the measurement of the absorbance. A 0.1M phosphate buffer solution (pH 6.5, prepared from KH2 PO4 and K2 HPO4) was employed as the buffer for the enzyme reaction. The IC50 was determined in the same manner as employed in the case of α-glucosidase.

For assay [3], the target named is T1, β-Galactosidase (E. Coli, EC. 3.2.1.23) (Escherichia coli, UniProt P00722).
T1 construct: purchased Sigma; host or cells: E. coli
Nature of the assay: β-Galactosidase (E. coli) enzyme inhibition assay (o-nitrophenyl β-D-galactopyranoside). The procedure:
as §1, §3, §4
4) β-Galactosidase (E. Coli, EC. 3.2.1.23) [described in G. R. Craven, E. Steers, Jr. and C. B. Anfinsen, J. Biol. Chem., 240, 2468-2477 (1965)]
Into each well were introduced an aqueous solution of a sample (2 μl), a buffer (153 μl), a 20 mM solution of o-nitrophenyl β-D-galactopyranoside in a buffer (25 μl), a 100 mM 2-mercaptoethanol (10 μl) and a (10 μg/ml) enzyme solution in the buffer (10 μl) to give a total volume of 200 μl. After incubating at room temperature (20°-30° C.) for 30 minutes, the absorbance (A405) of o-nitrophenol liberated by this enzyme reaction was measured. To give the blank absorbance (Ablank), the sample (2 μl), the substrate (25 μl), the buffer solution (163 μl) and 2-mercaptoethanol (10 μl) were incubated in the same manner followed by the measurement of the absorbance. To give the control absorbance (Acontrol), on the other hand, water (2 μl), the substrate (25 μl), the buffer solution (153 μl), 2-mercaptoethanol (10 μl) and the enzyme solution (10 μl) were incubated in the same manner followed by the measurement of the absorbance. A 50 mM phosphate buffer solution (pH 7.3, prepared from KH2 PO4 and K2 HPO4, containing 1.3 mM of MgCl2) was employed as the buffer for the enzyme reaction. The IC50 was determined in the same manner as employed in the case of α-glucosidase.

The target of assay [4] is T2, α-Glucosidase (Baker's yeast, EC 3.2.1.20) (Saccharomyces cerevisiae, UniProt P53341).
T2 construct: purchased Sigma; host or cells: Baker's yeast
The experiment in a line: α-Glucosidase enzyme inhibition assay (p-nitrophenyl α-D-glucopyranoside). The settings on record: for inhibitory activity against α-glucosidase (in words): compared with deoxynojirimycin, summary of Tables 1 and 2. As for the experimental part: as §1, §2, §3, §4
1) α-Glucosidase (Baker's yeast, EC 3.2.1.20) [described in H. Halvorson and L. Ellias, Biochim. Biophys. Acta, 30, 28-40 (1958)]
Into each well were introduced an aqueous solution of a sample (1 μl), a 0.66 mM solution of p-nitrophenyl α-D-glucopyranoside in a buffer (98 μl) and a (0.4 mg/ml) enzyme solution in the buffer (1 μl) to give a total volume of 100 μl. After incubating at 37° C. for 30 minutes, the reaction was ceased by adding a 1M aqueous solution of sodium carbonate (100 μl). Then the absorbance (A405) of p-nitrophenol liberated by this enzyme reaction was measured. To give the blank absorbance (Ablank), the sample (1 μl) and the substrate (99 μl) were incubated in the same manner and an aqueous solution of sodium carbonate (100 μl) was added followed by the measurement of the absorbance. […] The sample at each concentration, the blank and the control were treated each in two wells at the same time. As the buffer, a 0.1M phosphate buffer solution (pH 6.8, prepared from KH2 PO4 and K2 HPO4) was employed.

The target in assay [5] is T3, α-glucosidase I (Baker's yeast) (Saccharomyces cerevisiae, UniProt P53008).
T3 construct: made in house; host or cells: Baker's yeast (native enzyme, prepared by the cited method)
T3 sequence (P53008 25-833 limits assumed): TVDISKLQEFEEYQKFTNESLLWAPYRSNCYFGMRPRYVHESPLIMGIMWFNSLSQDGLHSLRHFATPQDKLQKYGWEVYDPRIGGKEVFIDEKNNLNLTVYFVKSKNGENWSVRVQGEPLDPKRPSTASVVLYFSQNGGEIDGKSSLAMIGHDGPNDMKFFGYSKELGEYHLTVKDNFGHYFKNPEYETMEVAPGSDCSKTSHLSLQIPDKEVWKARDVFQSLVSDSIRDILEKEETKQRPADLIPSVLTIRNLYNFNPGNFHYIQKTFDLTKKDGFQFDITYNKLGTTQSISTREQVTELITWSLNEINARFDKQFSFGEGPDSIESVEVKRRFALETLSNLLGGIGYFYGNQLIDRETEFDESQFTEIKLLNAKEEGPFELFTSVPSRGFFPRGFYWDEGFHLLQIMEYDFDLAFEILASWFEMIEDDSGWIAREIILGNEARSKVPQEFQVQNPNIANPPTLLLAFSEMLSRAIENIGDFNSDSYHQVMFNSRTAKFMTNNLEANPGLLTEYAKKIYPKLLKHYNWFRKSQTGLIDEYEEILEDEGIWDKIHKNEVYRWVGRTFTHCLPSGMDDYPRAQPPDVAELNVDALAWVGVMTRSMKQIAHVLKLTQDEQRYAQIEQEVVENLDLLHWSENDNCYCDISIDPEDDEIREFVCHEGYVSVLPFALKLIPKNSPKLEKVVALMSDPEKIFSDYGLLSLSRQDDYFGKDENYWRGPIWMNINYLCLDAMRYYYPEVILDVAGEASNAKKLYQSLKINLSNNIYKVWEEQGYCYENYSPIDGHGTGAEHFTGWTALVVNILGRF
The experiment in a line: Inhibitory activity on α-glucosidase I (Ki). As for the experimental part:
The α-glucosidase I (Baker's yeast) and its substrate (α-D-Glcl→2α-D-Glcl→3α-D-Glc-O(CH2)6 COOCH3) employed herein were prepared in accordance with the method of I. Neverova et al., Anal. Biochem., 222, 190-196 (1994).
The following measurements were performed by the methods described in this literature.
Namely, 25 μl of a buffer solution containing α-glucosidase I was added to a microtube containing the above-mentioned sample and the substrate (α-D-Glcl→2α-D-Glcl→3α-D-Glc-O(CH2)6 COOCH3). After incubating at 37° C. for 1 hour, a 1.25M tris hydrochloride buffer solution (pH 7.6, 25 μl) was added to thereby cease .the reaction. Then the reaction mixture was transferred onto a microplate followed by the addition of 250 μl of a reaction buffer solution [developing solution; 1M tris hydrochloride buffer solution (pH 7.2) containing glucose oxidase (5 units/ml, manufactured by Sigma), horseradish peroxidase (1 purpurogallin units, manufactured by Sigma) and o-dianisidine dihydrochloride (40 μg/ml)]. Then the mixture was incubated at 37° C. for 30 minutes or until an increase in the absorbance attained a plateau. Then the absorbance (A450-650) of the o-dianisidine formed and oxidized by this enzyme reaction was measured. As a blank, the above reaction was repeated but adding neither the above-mentioned sample nor substrate and the absorbance was measured. Also, the above-mentioned reaction buffer solution was added to D-glucose of a known concentration and the resulting mixture was incubated followed by the measurement of the absorbance to thereby examine a relationship between D-glucose concentration and absorbance. Each measurement was effected in two wells at the same time.
Based on the above-mentioned relationship between D-glucose concentration and absorbance, the amount of glucose liberated from the substrate due to the enzyme reaction of α-glucosidase I in the presence of the sample was determined. From the result thus obtained, Km was determined and then Ki was determined from the sample amount and the Km value.

Setting [6] is: pH 6.8, 37° C., 30 minutes, read-out: IC50 (M) α-Glucosidase (Baker's yeast).
[7] abbreviates: α-glucosidase I, substrate 0.25-4.0 mM, 37° C., 1 hour, read-out: Ki.

Like-named read-outs stand apart in the source and are kept apart here. Some results are limits rather than exact numbers.

T2 sequence (P53341 whole entry): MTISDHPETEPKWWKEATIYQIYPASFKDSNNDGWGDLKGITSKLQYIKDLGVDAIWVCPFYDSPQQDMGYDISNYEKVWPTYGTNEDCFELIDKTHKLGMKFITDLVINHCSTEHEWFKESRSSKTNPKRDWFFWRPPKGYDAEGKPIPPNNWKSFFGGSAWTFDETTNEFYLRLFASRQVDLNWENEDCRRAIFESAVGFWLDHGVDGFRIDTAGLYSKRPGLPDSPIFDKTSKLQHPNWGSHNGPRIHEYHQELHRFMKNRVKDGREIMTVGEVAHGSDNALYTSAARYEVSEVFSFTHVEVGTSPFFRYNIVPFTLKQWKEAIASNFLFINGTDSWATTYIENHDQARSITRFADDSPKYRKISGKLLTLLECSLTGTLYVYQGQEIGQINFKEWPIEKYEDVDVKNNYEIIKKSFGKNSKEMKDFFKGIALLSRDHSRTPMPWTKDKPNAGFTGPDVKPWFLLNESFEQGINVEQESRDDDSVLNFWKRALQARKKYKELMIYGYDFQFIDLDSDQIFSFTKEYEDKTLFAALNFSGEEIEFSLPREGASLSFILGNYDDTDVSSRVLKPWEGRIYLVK
T1 sequence (P00722 2-1024 limits assumed): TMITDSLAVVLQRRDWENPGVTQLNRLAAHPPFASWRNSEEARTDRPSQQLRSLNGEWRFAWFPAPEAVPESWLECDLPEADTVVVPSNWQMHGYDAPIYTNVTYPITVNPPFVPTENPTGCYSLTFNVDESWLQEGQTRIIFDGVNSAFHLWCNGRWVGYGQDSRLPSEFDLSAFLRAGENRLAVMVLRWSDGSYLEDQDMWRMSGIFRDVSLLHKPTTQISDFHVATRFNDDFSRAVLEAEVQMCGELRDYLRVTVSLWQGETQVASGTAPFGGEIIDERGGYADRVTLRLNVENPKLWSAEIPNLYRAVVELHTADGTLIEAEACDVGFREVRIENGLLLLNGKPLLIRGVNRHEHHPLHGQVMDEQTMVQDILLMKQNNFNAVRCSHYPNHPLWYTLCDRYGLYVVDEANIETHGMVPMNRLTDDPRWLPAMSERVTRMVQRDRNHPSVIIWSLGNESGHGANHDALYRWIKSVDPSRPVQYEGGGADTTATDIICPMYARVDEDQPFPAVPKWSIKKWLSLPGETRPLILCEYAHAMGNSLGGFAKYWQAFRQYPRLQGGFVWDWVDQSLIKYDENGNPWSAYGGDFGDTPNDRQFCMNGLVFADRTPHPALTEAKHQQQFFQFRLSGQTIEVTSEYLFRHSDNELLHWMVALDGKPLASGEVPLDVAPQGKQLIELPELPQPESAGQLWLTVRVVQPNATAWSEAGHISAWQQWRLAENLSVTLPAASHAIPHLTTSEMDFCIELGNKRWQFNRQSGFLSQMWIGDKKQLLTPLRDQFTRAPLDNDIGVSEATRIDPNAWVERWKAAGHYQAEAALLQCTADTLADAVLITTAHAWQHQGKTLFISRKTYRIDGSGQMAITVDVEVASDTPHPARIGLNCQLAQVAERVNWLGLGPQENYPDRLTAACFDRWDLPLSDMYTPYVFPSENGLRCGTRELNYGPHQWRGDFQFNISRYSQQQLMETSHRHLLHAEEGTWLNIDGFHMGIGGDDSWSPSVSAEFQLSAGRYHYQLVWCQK

What is called IC50 is the concentration at which inhibition is half-maximal. For the molecule `OC[C@]12OC(Nc3ccccc3)=N[C@H]1[C@@H](O)[C@H](O)[C@H]2O` [Compound 1-2D, (1R,5S,6R,7S,8R)-1-hydroxymethyl-3-phenylamino-2-oxa-4-azabicyclo[3.3.0]oct-3-ene-6,7,8-triol], the IC50 is > 300 µM in assay [1], > 300 µM in assay [2], > 0.0003 M in assay [3] and 9.99e-07 M in assay [4] (setting [6]).

One may read the Ki as a measure of affinity in units of concentration, obtained from inhibition or displacement. On to `CCCCNC1=N[C@@H]2[C@H](O)[C@@H](O)[C@H](O)[C@]2(CO)O1` [Compound 2-2L, (1S,5R,6S,7R,8S)-1-hydroxymethyl-3-butylamino-2-oxa-4-azabicyclo[3.3.0]oct-3-ene-6,7,8-triol], for which, in assay [5] (setting [7]), the Ki was found to be 4.2 µM. Also, in assay [1], the IC50 was > 300 µM. In addition, the “inhibitory activity against β-glucosidase (in words)” value in assay [1] (summary of Table 1) is reported as “weak inhibitory activities”. Also, the “inhibitory activity against α-glucosidase (in words)” value in assay [4] was “remarkably strong inhibitory activities”.

`OC[C@H]1NC[C@H](O)[C@@H](O)[C@@H]1O` [DNJ, deoxynojirimycin, reference compound] had an IC50 in assay [1] of […].

`CCCCN1C[C@H](O)[C@@H](O)[C@H](O)[C@H]1CO` [N-B-DNJ, N-butyldeoxynojirimycin, reference compound]: in assay [5], affinity was put at a Ki of 3.6 µM. This molecule also had an IC50 in assay [4] of 8e-05 M.

In the case of `N[C@@H]1[C@H](O)[C@@H](O)[C@H](O)[C@@]1(O)CO` [d, 1L-(1,2,4,5/3)-5-amino-1C-hydroxymethyl-1,2,3,4-cyclopentanetetraol], in assay [5] (setting [7]), the inhibitory constant (Ki) was 300 µM. Moreover, the IC50 in assay [3] (pH 7.3, room temperature, 30 minutes, read-out: IC50 (M) β-Galactosidase (E. coli)) is > 0.0003 M. In addition, in assay [4], 4.02e-07 M corresponded to half-maximal inhibition (IC50) and the “inhibitory activity against α-glucosidase (in words)” value was “remarkably strong inhibitory activities”.

Turning to `CCCCN(CCCC)[C@@H]1[C@H](O)[C@@H](O)[C@H](O)[C@@]1(O)CO` [d-1, 1L-(1,2,4,5/3)-5-dibutylamino-1-hydroxymethyl-1,2,3,4-cyclopentanetetraol], the values for the IC50 in assay [1] and in assay [4] (setting [6]) were 130 µM and 5e-07 M, respectively. Also, the “inhibitory activity against α-glucosidase (in words)” value in assay [4] is “remarkably strong inhibitory activities”.

In the case of `CCCCN[C@@H]1[C@H](O)[C@@H](O)[C@H](O)[C@@]1(O)CO` [d-2, 1L-(1,2,4,5/3)-5-butylamino-1-hydroxymethyl-1,2,3,4-cyclopentanetetraol], the IC50 was found to be 3 µM in assay [1] and 1.7e-08 M in assay [4] (setting [6]). Also, in assay [4], the “inhibitory activity against α-glucosidase (in words)” value is “remarkably strong inhibitory activities”.

Take trehasolamine [reference compound]: the Ki in assay [5] (setting [7]) was found to be 1500 µM. Further, the IC50 is 9.9 µM in assay [1] and 0.0005 M in assay [4] (setting [6]).
